Patent publication US7220725B2, “Pharmaceutical composition comprising an analgesic peptide and method for treating pain” (S.I.S. Shulov Institute for Science Ltd., priority 2000, dated 2007)
Square brackets hold non-standard residues; d marks the D form. * marks the point of attachment. pGlu = O=C1CC[C@@H](C(=O)O)N1; Octanoyl = CCCCCCCC(=O)*

Tested on: HCl induced pain
Experiment: Analgesic assay: licks after subcutaneous HCl injection following topical ointment
Type: in vivo, hamsters
Method: In each test, a few tens of hamsters of similar weight and age were used. The hamsters were divided into groups according to the number of samples to be tested. Ointment (50% Lanolin and 50% Vaseline) containing the tested substance was applied to the animal's fur on the back region. The fur was not removed so as to ensure that no damage to the skin occurred. A control group of hamsters was treated with ointment without the fraction of the invention. Hamsters were treated by topical application for 6, 14, 21 or 28 consecutive days. The test for analgesity was conducted following the last application of the ointment. In an alternate protocol, analgesity was tested following a single application of the ointment.
Subsequently to application of the ointment, the hamsters “clean” themselves by dispersing the ointment all over their body with their tongue and legs. Thus, some of the ointment is introduced into the oral cavity and possibly also into the intestine of the hamsters.
In a typical test, a constant amount of ointment with or without an analgesic substance is applied to each animal for a predetermined period of one or more days. Following this period, pain is induced by a subcutaneous injection of 0.5 ml of 1N HCl/0.1 kg body weight in the femur region. The hamsters respond to the HCl injection by touching the area of injection with the tongue, this being called a “lick”. 20 minutes after injection the hamster is observed for 60 min and the number of “licks” are counted. The number of “licks” serves as a quantitative indication of the HCl induced pain.
The analgesic effect is determined by comparing the mean number of “licks” in control animals to the number in treated animals. The significance of the difference was determined using t-test statistics.
0.6 mg of pENW, pENWK-C8 or pENWGAT (a dimer of pENW) were dissolved in 5 ml of DDW, mixed by an ultrasonic mixer for 2 minutes and then dissolved in […] of ointment. The final peptide concentration was 0.002 mg/gr.
6 applications were made over a period of 4 weeks. The test for analgesity was conducted 10 days following the last application of the ointment.
Compositions at a concentration of 0.020 mg/g were prepared as in Example 1 containing the following active ingredients: pENW, pEEW, or pENTW or pENWT. 6 applications were made over a period of 5 weeks. The results are summarized below:
A composition containing pENW—C8 at a concentration of 0.002 mg/g ointment was prepared as in Example 1. A single application was made to the animals, and analgesity was assayed 11, 23 and 48 days post-application. Ointment without an active substance was applied to the control animals.

[1] = Example 1: 0.002 mg/gr in ointment, topical, 6 applications over 4 weeks, tested 10 days after last application, control 113.9
[2] = Example 2: 0.020 mg/g in ointment, topical, 6 applications over 5 weeks, control 117

Substance	mean number of licks (Example 3: 0.002 mg/g ointment, single application, 11 days post application, control 106)	mean number of licks (Example 3: 0.002 mg/g ointment, single application, 23 days post application, control 106)	mean number of licks (Example 3: 0.002 mg/g ointment, single application, 48 days post application, control 106)	mean number of licks [1]	mean number of licks [2]
pGlu-Asn-Trp-O-octyl [pENW—C8]	66	35.7	62.4		
pGLU-ASN-TRP—OH [pENW]				59.7	44
pGLU-GLU-TRP—OH [pEEW]					35
pGLU-ASN-TRP-LYS(octanoyl)-OH ([pGlu]NWK(Octanoyl)-OH; SMILES CCCCCCCC(=O)NCCCC[C@H](NC(=O)[C@H](Cc1c[nH]c2ccccc12)NC(=O)[C@H](CC(N)=O)NC(=O)[C@@H]1CCC(=O)N1)C(=O)O) [pENWK-C8]				37.9	
